Drawing on US20240246918A1, “COMPOUNDS AND COMPOSITIONS AS EIF4E INHIBITORS AND THE USES THEREOF” (Ribometrix, Inc., priority 2022, published 2024), this text covers IC50 for 26 compounds.

Some results are limits rather than exact numbers.

For one assay, the target named is T1, human eIF4E protein (Homo sapiens, UniProt P06730).
T1 construct: purchased Novus NBP-45314
As to the kind of experiment: Biochemical competitive binding assay (TR-FRET competition, EDA-m7GDP-ATTO-647N probe). The note with it: read-out: hEIF4E TR-FRET IC50. On the procedure: The potencies of compounds binding to human eIF4E protein were measured using a 384-well time-resolved fluorescence resonance energy transfer (TR-FRET) competition assay. The assay was performed in assay buffer containing 50 mM HTEPES pH 7.5, 100 mM KCl, 0.02% Tween-20, and 0.1 mg/mL bovine serum albumin (BSA). The reaction volume was 10 μL and each reaction contained 4 nM recombinant 6×HIS-tagged human EIF4E protein (Novus, NBP-45314), 5 nM EDA-m7GDP-ATTO-647N (Jena Bioscience, NU-827-647N), 2.5 nM Europium conjugated Anti-6×HIS antibody (PerkinElmer, AD0402) and varying concentrations of compound. The final DMSO concentration was […].
Compounds were prepared using 11-point, 4-fold serial dilutions in DMSO and 100 nL of diluted compounds were transferred to 384-well assay-ready plates. Recombinant human EIF4E protein at 2× final concentration (8 nM) was pre-incubated with Eu-anti-6×HIS antibody at 2× final concentration (5 nM) for 5 minutes, then 5 μL of the protein solution was added to assay-ready plates. The protein/compound mix was incubated for 15 minutes, after which 5 μL of a solution containing EDA-m7GDP-ATTO-647N probe at 2× final concentration (10 nM) was added. After a subsequent 15-minute incubation, time-resolved fluorescence of assay plates was measured using a Clariostar Plus microplate reader (BMG Labtech) and TR-FRET values were calculated by taking a ratio of the 665 to 620 wavelength signals. After normalization to the average of DMSO control and maximum inhibition control wells, concentration-response data were plotted and standard 4-parameter curve fitting (PEI Signals) was utilized to determine IC50 values.
A general note: TR-FRET usually uses a lanthanide donor and a delayed reading to cut background.

For assay [1], the system named is COLO 205 colorectal tumor cells. As to the kind of experiment: Tumor cell viability inhibition assay (CellTiter-Glo 2.0, 72 hours). The format is cell-based. The note with it: COLO 205 cell viability. On the procedure: The effect of compound treatment on COLO 205 tumor cell viability was assessed using cellular ATP quantification methods (Promega CellTiter-Glo® 2.0, G9241), as follows. Test compounds were prepared using 11-point, 4-fold serial dilutions in DMSO and 100 nL of diluted compounds were transferred to 384-well assay-ready plates. COLO 205 (ATCC, CCL-222) colorectal tumor cells were seeded to assay-ready plates in RPMI-1640 medium supplemented with 10% FBS at 1500 cells in a volume of 33.5 microliters per well. After 72 hours of compound treatment, cellular ATP was assessed by CellTiter-Glo® 2.0 Cell Viability Assay method, according to the manufacturer's instructions. Luminescence was measured using a Clariostar Plus microplate reader (BMG Labtech) or equivalent. After normalization to the average of DMSO control and maximum inhibition control wells, concentration-response data were plotted and standard 4-parameter curve fitting (PEI Signals) was utilized to determine IC50
For orientation: ATP-based viability assays read luminescence as a measure of living cells.

T1 sequence (P06730 whole entry): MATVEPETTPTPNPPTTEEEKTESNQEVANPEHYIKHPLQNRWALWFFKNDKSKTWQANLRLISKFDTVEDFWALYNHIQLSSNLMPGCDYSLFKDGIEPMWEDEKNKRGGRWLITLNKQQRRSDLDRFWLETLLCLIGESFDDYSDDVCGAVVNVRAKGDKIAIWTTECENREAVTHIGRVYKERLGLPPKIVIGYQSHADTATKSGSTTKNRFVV

In general, IC50 refers to the midpoint of a concentration-inhibition curve. For the compound `COC1CCN(C2CCc3nc(C)n(CC#Cc4ccc(Cl)cc4-c4ccnc5c(C(=O)NS(C)(=O)=O)csc45)c(=O)c3C2)CC1` (single isomer, unassigned) [Compound 414], the half-maximal inhibitory concentration (IC50) on human eIF4E protein is less than 0.1 µM; in assay [1] (Homo sapiens, COLO 205, 72 h) it was less than 5 µM.

In the case of `Cc1nc2c(c(=O)n1CC#Cc1ccc(Cl)cc1-c1ccnc3c(C(=O)O)csc13)CC(N1CCC(OC(F)(F)F)CC1)CC2` (single isomer, unassigned) [Compound 535], the results for the IC50 (on human eIF4E protein; in assay [1]) were less than 0.1 µM and less than 5 µM, respectively.

As for `Cc1cc(-c2cc(Cl)ccc2OCCn2c(C)nc3c(c2=O)C[C@H](N2C[C@@H]4CC[C@H]2CC4OC(F)(F)F)CC32CC2)c2scc(C(=O)O)c2n1` (single isomer, unassigned) [Compound 604], the IC50 was less than 0.1 µM on human eIF4E protein and less than 5 µM in assay [1] (Homo sapiens, COLO 205, 72 h).

Consider `Cc1cc(-c2cc(Cl)ccc2OCCn2c(C)nc3c(c2=O)C[C@@H](N2CCCC(F)(F)CC2)CC3)c2scc(C(=O)O)c2n1` (single isomer, unassigned) [Compound 402], for which the concentration for half-maximal inhibition (IC50) at human eIF4E protein is less than 0.1 µM; in assay [1] (Homo sapiens, COLO 205, 72 h), less than 5 µM.

Turning to `Cc1cc(-c2cc(Cl)ccc2OCCn2c(C)nc3c(c2=O)C[C@@H](N2CCC(c4nc(C(F)(F)F)cs4)CC2)CC3)c2scc(C(=O)O)c2n1` (single isomer, unassigned) [Compound 578], the IC50 is less than 0.1 µM at human eIF4E protein and less than 5 µM in assay [1] (Homo sapiens, COLO 205, 72 h).

`Cc1cc(-c2ccc(Cl)cc2OCCn2c(C)nc3c(c2=O)C[C@@H](N(C)[C@H]2C[C@@](C)(O)C2)CC3)c2scc(C(=O)O)c2n1` (single isomer, unassigned) [Compound 228]: the IC50 at human eIF4E protein was less than 0.1 µM; in assay [1] (Homo sapiens, COLO 205, 72 h), greater than 20 µM.

As for `CO[C@@H](C1CCN([C@H]2CCc3nc(C)n(CCOc4ccc(Cl)cc4-c4cc(C)nc5c(C(=O)O)csc45)c(=O)c3C2)CC1)C(F)(F)F` (single isomer, unassigned) [Compound 562], the concentration for half-maximal inhibition (IC50) is less than 0.1 µM at human eIF4E protein and less than 5 µM in assay [1] (Homo sapiens, COLO 205, 72 h).

As for `CO[C@@H](C1CCN([C@@H]2CCc3nc(C)n(CCOc4ccc(Cl)cc4-c4cc(C)nc5c(C(=O)O)csc45)c(=O)c3C2)CC1)C(F)(F)F` (single isomer, unassigned) [Compound 551], the IC50 at human eIF4E protein was less than 0.1 µM; in assay [1] (Homo sapiens, COLO 205, 72 h) it was less than 5 µM.

Consider `Cc1cc(-c2cc(Cl)ccc2OCCn2c(C)nc3c(c2=O)CC(N)CC3)c2scc(C(=O)O)c2n1` (stereo not shown) [Compound 411], for which the IC50 at human eIF4E protein was less than 0.1 µM; in assay [1] (Homo sapiens, COLO 205, 72 h) it was less than 5 µM.

Turning to `Cc1cc(-c2cc(Cl)ccc2OCCn2c(C)nc3c(c2=O)C[C@H](N2CCCC[C@H]2c2cccc(F)c2)CC32CC2)c2scc(C(=O)O)c2n1` (single isomer, unassigned) [Compound 626, 7-(5-chloro-2-(2-(6′-(2-(3-fluorophenyl)piperidin-1-yl)-2′-methyl-4′-oxo-6′,7′-dihydro-4′H-spiro[cyclopropane-1,8′-quinazolin]-3′(5′H)-yl)ethoxy)phenyl)-5-methylthieno[3,2-b]pyridine-3-carboxylic acid], the IC50 at human eIF4E protein was less than 0.1 µM; in assay [1] (Homo sapiens, COLO 205, 72 h), 5 to 20 µM.

For the compound `CO[C@@H]1CCN([C@@H]2CCc3nc(C)n(CCOc4ccc(Cl)cc4-c4cc(C)nc5c(C(=O)O)csc45)c(=O)c3C2)CC12CC2` (single isomer, unassigned) [Compound 519], the IC50 on human eIF4E protein was less than 0.1 µM; in assay [1] (Homo sapiens, COLO 205, 72 h), greater than 20 µM.

On to `Cc1cc(-c2cc(Cl)ccc2OCCn2c(C)nc3c(c2=O)C[C@H](N2CCC(c4cn(C)cn4)CC2)CC3)c2scc(C(=O)O)c2n1` (single isomer, unassigned) [Compound 486], for which the IC50 at human eIF4E protein is less than 0.1 µM; in assay [1] (Homo sapiens, COLO 205, 72 h) it was greater than 20 µM.

In the case of `Cc1cc(-c2cc(Cl)ccc2OCCn2c(C(F)(F)F)nc3c(c2=O)CC(N2CCC(OC(F)(F)F)CC2)CC3)c2scc(C(=O)O)c2n1` (single isomer, unassigned) [Compound 631], the results for the IC50 (on human eIF4E protein; in assay [1]) were 0.5 to 5 µM and greater than 20 µM, respectively.

Consider `Cc1cc(-c2cc(Cl)ccc2OCCn2c(C)nc3c(c2=O)C[C@@H](N2CCC[C@]4(C2)CC4(F)F)CC3(C)C)c2scc(C(=O)O)c2n1` (single isomer, unassigned) [Compound 440], for which the IC50 is less than 0.1 µM at human eIF4E protein and 5 to 20 µM in assay [1] (Homo sapiens, COLO 205, 72 h).

`Cc1cc(-c2cc(Cl)ccc2OCCn2c(C)nc3c(c2=O)C[C@H](N2CCC(N4CC(F)(F)C4)CC2)CC3)c2scc(C(=O)O)c2n1` (single isomer, unassigned) [Compound 111]: the IC50 is less than 0.1 µM on human eIF4E protein and less than 5 µM in assay [1] (Homo sapiens, COLO 205, 72 h).

For the compound `Cc1cc(-c2cc(Cl)ccc2OCCn2c(C(F)(F)F)nc3c(c2=O)CC(N2CCC(OC(F)(F)F)CC2)CC3)c2scc(C(=O)O)c2n1` (single isomer, unassigned) [Compound 627], the IC50 was 0.5 to 5 µM on human eIF4E protein and greater than 20 µM in assay [1] (Homo sapiens, COLO 205, 72 h).

`Cc1cc(-c2cc(Cl)ccc2OCCn2c(C)nc3c(c2=O)C[C@H](N2CCC[C@]4(C2)CC4(F)F)CC3)c2scc(C(=O)O)c2n1` (single isomer, unassigned) [Compound 137]: the IC50 at human eIF4E protein is less than 0.1 µM; in assay [1] (Homo sapiens, COLO 205, 72 h) it was less than 5 µM.

On to `Cc1cc(-c2cc(Cl)ccc2OCCn2c(C)nc3c(c2=O)C[C@@H](N2CCC(c4ccc(F)cc4F)CC2)CC3)c2scc(C(=O)O)c2n1` (single isomer, unassigned) [Compound 419], for which the IC50 at human eIF4E protein is less than 0.1 µM; in assay [1] (Homo sapiens, COLO 205, 72 h) it was less than 5 µM.

With `Cc1cc(-c2cc(Cl)ccc2OCCn2c(C)nc3c(c2=O)C[C@H](N2CCC[C@@H](C(F)F)C2)CC32CC2)c2scc(C(=O)O)c2n1` (single isomer, unassigned) [Compound 616], the IC50 at human eIF4E protein was less than 0.1 µM; in assay [1] (Homo sapiens, COLO 205, 72 h), less than 5 µM.

`Cc1cc(-c2cc(Cl)ccc2OCCn2c(C)nc3c(c2=O)CC(N2CCC(OC(F)(F)F)CC2)CC3)c2scc(C(=O)NS(=O)(=O)C3CC3)c2n1` (single isomer, unassigned) [Compound 417]: the half-maximal inhibitory concentration (IC50) is less than 0.1 µM on human eIF4E protein and less than 5 µM in assay [1] (Homo sapiens, COLO 205, 72 h).

Take `Cc1cc(-c2cc(Cl)ccc2OCCn2c(C)nc3c(c2=O)C[C@H](N2C[C@@H]4CC[C@H]2CC4OC(F)(F)F)CC3)c2scc(C(=O)O)c2n1` (single isomer, unassigned) [Compound 501]: the IC50 was less than 0.1 µM on human eIF4E protein and less than 5 µM in assay [1] (Homo sapiens, COLO 205, 72 h).

For the compound `Cc1cc(-c2cc(Cl)ccc2C#CCn2c(C)nc3c(c2=O)CC(C)(N2CCCC4(C2)CC4(F)F)CC3)c2scc(C(=O)O)c2n1` (single isomer, unassigned) [Compound 612], the values for the IC50 (on human eIF4E protein; in assay [1]) were 0.1 to 0.5 µM and 5 to 20 µM, respectively.

Turning to `Cc1cc(-c2cc(Cl)ccc2OCCn2c(C)nc3c(c2=O)C[C@H](N2CCCC[C@H]2C(F)(F)F)CC32CC2)c2scc(C(=O)O)c2n1` (single isomer, unassigned) [Compound 633], the IC50 was less than 0.1 µM at human eIF4E protein and 5 to 20 µM in assay [1] (Homo sapiens, COLO 205, 72 h).

As to `Cc1cc(-c2cc(Cl)ccc2OCCn2c(C)nc3c(c2=O)C[C@@H](N2CCC(C(F)(F)F)CC2)CC3)c2scc(C(=O)O)c2n1` (single isomer, unassigned) [Compound 374], the IC50 on human eIF4E protein was less than 0.1 µM; in assay [1] (Homo sapiens, COLO 205, 72 h) it was less than 5 µM.

Take `Cc1cc(-c2cc(Cl)ccc2OCCn2c(C)nc3c(c2=O)C[C@@H](N2CCC[C@H](OC(F)(F)F)C2)CC3)c2scc(C(=O)O)c2n1` (single isomer, unassigned) [Compound 472]: the IC50 on human eIF4E protein was less than 0.1 µM; in assay [1] (Homo sapiens, COLO 205, 72 h) it was less than 5 µM.

As for `COC1(C)CCN(C2CCc3nc(C)n(CCOc4ccc(Cl)cc4-c4cc(C)nc5c(C(=O)O)csc45)c(=O)c3C2)CC1` (stereo not shown) [Compound 134], the IC50 on human eIF4E protein was less than 0.1 µM; in assay [1] (Homo sapiens, COLO 205, 72 h) it was less than 5 µM.
